{"source": "patent US12337001B2", "about": "“Neutral endopeptidase (NEP) and human soluble endopeptidase (hSEP) inhibitors to reduce detrimental effects of perfusion deficiency of parenchymal organs” (priority 2018, dated 2025)", "system": "rats subjected to transient bilateral occlusion of the common carotid artery (BCCA)", "assay": "Open field test of exploratory performance after transient bilateral occlusion of the common carotid artery (BCCA)", "type": "in vivo, rat", "settings": "for Ambulation / Blocks (episodes of interest in blocks) / Defecation / Grooming / Rearing: 60 mg/kg/d s.c. osmotic minipump, open field 5 min, x ± SEM", "key": {"[1]": {"settings": "BCCA + (6) group, 60 mg/kg/d, 5 days after BCCA"}, "[2]": {"settings": "BCCA + (6): BCCA 30 min, 5 days after BCCA"}, "[3]": {"settings": "Control + (6) group (reference = 100)"}, "[4]": {"settings": "Control + (6): sham-operated Wistar rats"}}}
{"smiles": "O=C(O)CN1C(=O)[C@@H](NC(=O)C2(C[C@@H](CCc3ccccc3)C(=O)O)CCCC2)CCc2ccccc21", "note": "[Compound (6), (2R)-2-{[1-({[(3S)-1-(carboxymethyl)-2-oxo-2,3,4,5-tetrahydro-1H-1-benzazepin-3-yl]amino}carbonyl)cyclopentyl]methyl}-4-phenylbutanoic acid]", "values": [{"measurement": "Ambulation, % of sham-operated controls", "setting": "[1]", "value": 94.81, "unit": "%"}, {"measurement": "Blocks (episodes of interest in blocks), % of sham-operated controls", "setting": "[1]", "value": 103.80, "unit": "%"}, {"measurement": "Defecation, % of sham-operated controls", "setting": "[1]", "value": 82.54, "unit": "%"}, {"measurement": "Grooming, % of sham-operated controls", "setting": "[1]", "value": 112.83, "unit": "%"}, {"measurement": "Rearing, % of sham-operated controls", "setting": "[1]", "value": 104.62, "unit": "%"}, {"measurement": "Ambulation", "setting": "[2]", "value": "2741 ± 4.25 (n)"}, {"measurement": "Blocks (episodes of interest in blocks)", "setting": "[2]", "value": "7.64 ± 2.54 (n)"}, {"measurement": "Defecation", "setting": "[2]", "value": "1.04 ± 0.45 (n)"}, {"measurement": "Grooming", "setting": "[2]", "value": "5.98 ± 1.06 (n)"}, {"measurement": "Rearing", "setting": "[2]", "value": "12.01 ± 3.86 (n)"}, {"measurement": "Ambulation, % of Control + (6)", "setting": "[3]", "value": 100, "unit": "%"}, {"measurement": "Blocks, % of Control + (6)", "setting": "[3]", "value": 100, "unit": "%"}, {"measurement": "Defecation, % of Control + (6)", "setting": "[3]", "value": 100, "unit": "%"}, {"measurement": "Grooming, % of Control + (6)", "setting": "[3]", "value": 100, "unit": "%"}, {"measurement": "Rearing, % of Control + (6)", "setting": "[3]", "value": 100, "unit": "%"}, {"measurement": "Ambulation", "setting": "[4]", "value": "28.91 ± 5.13 (n)"}, {"measurement": "Blocks (episodes of interest in blocks)", "setting": "[4]", "value": "7.36 ± 2.85 (n)"}, {"measurement": "Defecation", "setting": "[4]", "value": "1.26 ± 0.45 (n)"}, {"measurement": "Grooming", "setting": "[4]", "value": "5.30 ± 1.57 (n)"}, {"measurement": "Rearing", "setting": "[4]", "value": "11.48 ± 3.51 (n)"}, {"measurement": "Exploratory performance in rats subjected to BCCA", "setting": "open field test, 60 mg/kg/d, result in words, 60 mg/kg/day", "value": "statistically significant improvement"}]}
